The subject of test [1] is THP-1 clone No. 63 (containing PGL2_Neo30). As to the kind of experiment: Luciferase reporter gene assay for compounds which destabilize mRNA, clone No. 63. The test is classed as cell-based. The note with it: clone 63. The text has this: (§1) One method for identifying a the ability of a compound of the present invention to induce mRNA degradation, comprises i) contacting the compound with a DNA expression system which in the absence of the compound is capable of expressing a protein having a detectable signal, wherein the mRNA which codes for the protein and which is transcribed from the expression system comprises at least one copy of a mRNA instability sequence; ii) measuring the detectable signal in the presence of the test compound and comparing the result obtained with a control. A related method can be used to compare compounds which induce mRNA degradation. This method comprises separately contacting the compounds with a DNA expression system which in the absence of the compounds is capable of expressing a protein having a detectable signal, wherein the mRNA which codes for the protein and which is transcribed from the expression system comprises at least one copy of a mRNA instability sequence, measuring the detectable signal in the presence of each test compound and comparing the signals obtained.
(§2) The THP-1 cell lines, clone No. 63 (containing PGL2_Neo30) and clone No. 53 (containing pGL2-Control) are grown, differentiated and stimulated with IFN-γ and LPS identical to normal THP-1 cells (for details see WO 00/39314). Compound is added 16 hrs after the addition of LPS and cell extracts are then taken 8 hrs later or as indicated. Luciferase activity was inhibited by 1 μM benzoic acid derivative on average by 40%, whereas up to 5 μM of benzoic acid derivative had no effects on the control clone No. 53.
For orientation: In a reporter assay the amount or activity of a reporter protein is the signal.

Test [2] relates to THP-1 clone No. 53 (containing pGL2-Control). As to the kind of experiment: Luciferase reporter gene assay, control clone No. 53. The test is classed as cell-based. As to conditions: control clone 53.
Excerpt: as §1, §2

On to `COc1cccc(C)c1C(=O)OC[C@@H]1C=CC(=O)O1`, for which the “Luciferase reporter gene assay (% control)” value in test [1] (0.5 μM) is 85 % control; in test [1] (1 μM), 79 % control; in test [1] (5 μM) it was 29 % control; in test [2] (0.5 μM), 89 % control; in test [2] (1 μM), 93 % control; in test [2] (5 μM), 99 % control.

For the origin of these results see patent US20050049202A1, “Benzoic acid derivatives and uses thereof” (priority 2000, published 2005).
